# According to ChEMBL document CHEMBL3885881, “DrugMatrix”:
# Species on record: Rattus norvegicus
# Experiment: DrugMatrix - Regimen: Daily Repeat
# Format: toxicity, organism-based, Sprague-Dawley
# Parameters: regimen Daily Repeat, gender Male, age 6-8 weeks
# Settings: in vivo, po, […], route oral GAVAGE; for ABSOLUTE BASOPHIL / ABSOLUTE EOSINOPHIL / ABSOLUTE LYMPHOCYTE / ABSOLUTE MONOCYTE / ABSOLUTE SEGMENTED NEUTROPHIL / BASOPHIL / EOSINOPHIL / ERYTHROCYTE COUNT / HEMATOCRIT / HEMOGLOBIN / LEUKOCYTE COUNT / LYMPHOCYTE / MEAN CORPUSCULAR HEMOGLOBIN / MEAN CORPUSCULAR HEMOGLOBIN CONCENTRATION / MEAN CORPUSCULAR VOLUME / MONOCYTE / NEUTROPHIL / NUCLEATED RED BLOOD CELLS / PLATELET COUNT: tissue Blood; for ALANINE AMINOTRANSFERASE / ALBUMIN / ALKALINE PHOSPHATASE / ASPARTATE AMINOTRANSFERASE / BLOOD UREA NITROGEN / CARBON DIOXIDE / CHLORIDE / CHOLESTEROL / CREATINE PHOSPHOKINASE / CREATININE / GLUCOSE / LACTATE DEHYDROGENASE / LIPASE / PHOSPHORUS / POTASSIUM / SODIUM / TOTAL BILIRUBIN / TOTAL PROTEIN / URIC ACID: tissue Plasma
# [1] = 400 mg/kg, dose level Low, time 7 day
# [2] = 1175 mg/kg, 72 h, dose level High, time 3 day
# [3] = 1175 mg/kg, dose level High, time 7 day
compound,measurement,setting,value
ClC(Cl)(Cl)Cl [CARBON TETRACHLORIDE],ABSOLUTE BASOPHIL,[1],0 CELLS/uL
same,ABSOLUTE EOSINOPHIL,[1],0 CELLS/uL
same,ABSOLUTE LYMPHOCYTE,[1],12903.17 CELLS/uL
same,ABSOLUTE MONOCYTE,[1],339.83 CELLS/uL
same,ABSOLUTE SEGMENTED NEUTROPHIL,[1],990.33 CELLS/uL
same,BASOPHIL,[1],0%
same,EOSINOPHIL,[1],0%
same,ERYTHROCYTE COUNT,[1],6.32 x10E6/uL
same,HEMATOCRIT,[1],37.03%
same,HEMOGLOBIN,[1],14.83 G/DL
same,LEUKOCYTE COUNT,[1],14.23 x10E3/uL
same,LYMPHOCYTE,[1],90.33%
same,MEAN CORPUSCULAR HEMOGLOBIN,[1],23.5 pg
same,MEAN CORPUSCULAR HEMOGLOBIN CONCENTRATION,[1],40.08 G/DL
same,MEAN CORPUSCULAR VOLUME,[1],58.68 fL
same,MONOCYTE,[1],2.17%
same,NEUTROPHIL,[1],7.5%
same,NUCLEATED RED BLOOD CELLS,[1],0 /100WBC
same,PLATELET COUNT,[1],869.5 x10E3/uL
same,ALANINE AMINOTRANSFERASE,[1],295.83 u/L
same,ALBUMIN,[1],4.12 G/DL
same,ALKALINE PHOSPHATASE,[1],598 u/L
same,ASPARTATE AMINOTRANSFERASE,[1],469.33 u/L
same,BLOOD UREA NITROGEN,[1],15.17 mg/dL
same,CARBON DIOXIDE,[1],29 mmol/L
same,CHLORIDE,[1],99.67 MEQ/L
same,CHOLESTEROL,[1],34.17 mg/dL
same,CREATINE PHOSPHOKINASE,[1],258.83 u/L
same,CREATININE,[1],0.27 mg/dL
same,GLUCOSE,[1],129 mg/dL
same,LACTATE DEHYDROGENASE,[1],176.83 u/L
same,LIPASE,[1],10 u/L
same,PHOSPHORUS,[1],9.22 mg/dL
same,POTASSIUM,[1],5.35 MEQ/L
same,SODIUM,[1],142.35 MEQ/L
same,TOTAL BILIRUBIN,[1],0.22 mg/dL
same,TOTAL PROTEIN,[1],5.88 G/DL
same,URIC ACID,[1],0.82 mg/dL
same,ABSOLUTE BASOPHIL,[2],0 CELLS/uL
same,ABSOLUTE EOSINOPHIL,[2],29 CELLS/uL
same,ABSOLUTE LYMPHOCYTE,[2],12136.5 CELLS/uL
same,ABSOLUTE MONOCYTE,[2],331.83 CELLS/uL
same,ABSOLUTE SEGMENTED NEUTROPHIL,[2],869.33 CELLS/uL
same,BASOPHIL,[2],0%
same,EOSINOPHIL,[2],0.33%
same,ERYTHROCYTE COUNT,[2],6.02 x10E6/uL
same,HEMATOCRIT,[2],37.65%
same,HEMOGLOBIN,[2],13.88 G/DL
same,LEUKOCYTE COUNT,[2],13.37 x10E3/uL
same,LYMPHOCYTE,[2],90.67%
same,MEAN CORPUSCULAR HEMOGLOBIN,[2],23.13 pg
same,MEAN CORPUSCULAR HEMOGLOBIN CONCENTRATION,[2],36.9 G/DL
same,MEAN CORPUSCULAR VOLUME,[2],62.75 fL
same,MONOCYTE,[2],2.5%
same,NEUTROPHIL,[2],6.5%
same,NUCLEATED RED BLOOD CELLS,[2],0.17 /100WBC
same,PLATELET COUNT,[2],800.67 x10E3/uL
same,ALANINE AMINOTRANSFERASE,[2],129 u/L
same,ALBUMIN,[2],3.92 G/DL
same,ALKALINE PHOSPHATASE,[2],531.5 u/L
same,ASPARTATE AMINOTRANSFERASE,[2],232.83 u/L
same,BLOOD UREA NITROGEN,[2],19.17 mg/dL
same,CARBON DIOXIDE,[2],31.33 mmol/L
same,CHLORIDE,[2],101.5 MEQ/L
same,CHOLESTEROL,[2],41.67 mg/dL
same,CREATINE PHOSPHOKINASE,[2],258.5 u/L
same,CREATININE,[2],0.28 mg/dL
same,GLUCOSE,[2],144.83 mg/dL
same,LACTATE DEHYDROGENASE,[2],110 u/L
same,LIPASE,[2],10.5 u/L
same,PHOSPHORUS,[2],9.55 mg/dL
same,POTASSIUM,[2],5.46 MEQ/L
same,SODIUM,[2],145.42 MEQ/L
same,TOTAL BILIRUBIN,[2],0.1 mg/dL
same,TOTAL PROTEIN,[2],5.68 G/DL
same,URIC ACID,[2],0.45 mg/dL
same,ABSOLUTE BASOPHIL,[3],0 CELLS/uL
same,ABSOLUTE EOSINOPHIL,[3],0 CELLS/uL
same,ABSOLUTE LYMPHOCYTE,[3],11238.67 CELLS/uL
same,ABSOLUTE MONOCYTE,[3],252 CELLS/uL
same,ABSOLUTE SEGMENTED NEUTROPHIL,[3],1109.33 CELLS/uL
same,BASOPHIL,[3],0%
same,EOSINOPHIL,[3],0%
same,ERYTHROCYTE COUNT,[3],6.55 x10E6/uL
same,HEMATOCRIT,[3],37.82%
same,HEMOGLOBIN,[3],14.68 G/DL
same,LEUKOCYTE COUNT,[3],12.6 x10E3/uL
same,LYMPHOCYTE,[3],89%
same,MEAN CORPUSCULAR HEMOGLOBIN,[3],22.53 pg
same,MEAN CORPUSCULAR HEMOGLOBIN CONCENTRATION,[3],38.87 G/DL
same,MEAN CORPUSCULAR VOLUME,[3],57.97 fL
same,MONOCYTE,[3],2%
same,NEUTROPHIL,[3],9%
same,NUCLEATED RED BLOOD CELLS,[3],0 /100WBC
same,PLATELET COUNT,[3],761 x10E3/uL
same,ALANINE AMINOTRANSFERASE,[3],302 u/L
same,ALBUMIN,[3],3.77 G/DL
same,ALKALINE PHOSPHATASE,[3],779.83 u/L
same,ASPARTATE AMINOTRANSFERASE,[3],589.83 u/L
same,BLOOD UREA NITROGEN,[3],17.67 mg/dL
same,CARBON DIOXIDE,[3],30.5 mmol/L
same,CHLORIDE,[3],98.83 MEQ/L
same,CHOLESTEROL,[3],26.5 mg/dL
same,CREATINE PHOSPHOKINASE,[3],269.67 u/L
same,CREATININE,[3],0.24 mg/dL
same,GLUCOSE,[3],122.83 mg/dL
same,LACTATE DEHYDROGENASE,[3],182.5 u/L
same,LIPASE,[3],9.17 u/L
same,PHOSPHORUS,[3],9.22 mg/dL
same,POTASSIUM,[3],5.74 MEQ/L
same,SODIUM,[3],142.6 MEQ/L
same,TOTAL BILIRUBIN,[3],0.22 mg/dL
same,TOTAL PROTEIN,[3],5.7 G/DL
same,URIC ACID,[3],0.47 mg/dL
